The numbers were not newly measured in article PMC5111556 (Organic & biomolecular chemistry, 2016), which cites them from elsewhere.

This series deals with αvβ3.

Cilengitide: the “αvβ3-targeted antiangiogenic therapy (in words)” value is “initial promise”.
